Here are results for nine compounds from PubChem BioAssay (NCI).

Holding throughout (test): growth of human tumour cells (NCI), 48 h
Test [1] concerns K-562 leukemia.
Test [2] concerns RPMI-8226 leukemia.
Test [3] concerns UO-31 renal.
The test system of test [4] is OVCAR-4 ovarian.
In test [5] the test system is HT29 colon.
Test [6] deals with OVCAR-5 ovarian.
In test [7] the test system is SF-268 CNS.
Test [8] deals with COLO 205 colon.
The test system of test [9] is MOLT-4 leukemia.
Test [10] deals with SR leukemia.

Several values for one entry are separate records, joined by “and”; a condition that tells them apart may be missing. Equal entries are not always repeated.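 How tested: cells in 96-well plates exposed to compound for 48 hours at five concentrations. The concentration for 50% growth inhibition is given as GI50. TGI: total growth inhibition.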 Bounds are passed on as bounds.

With `COc1ccccc1CNCCN1C(=O)c2ccc3c4c(ccc(c24)C1=O)C(=O)N(CCNCc1ccccc1OC)C3=O`, the GI50 in test [1] is 0.234 µM; in test [2] it was 0.287 µM; in [3], 0.841 µM; in test [4] it was 0.132 µM; in [5], 0.215 µM; in test [6], 0.68 µM. In addition, the GI50 in test [7] was 0.269 µM; in test [8] it was 0.169 µM; in test [9], 0.252 µM; in test [10], 0.178 µM. Moreover, the TGI came out at 1.09 µM in [1]; 0.955 µM in test [2]; 2.14 µM in test [3]; 0.261 µM in test [4]; 0.447 µM in test [5]; 3.34 µM in [6]. The TGI in [7] came to 1.12 µM; in test [8], 0.345 µM; in [9], 0.65 µM; in test [10], 0.581 µM.

With `C=CCN(CC=C)C(=O)c1cc(C)nc2c1c(=O)n(-c1ccccc1)c(=O)n2CCCN1CCN(c2ccccc2OC)CC1`, the GI50 in test [1], in test [2], in test [3], in test [4], in [5] and in test [6] was more than 50 µM each time. Also, the GI50 in [7], in [8], in test [9] and in test [10] was more than 50 µM in each case. Besides, the TGI in test [1], in test [2], in test [3], in [4], in test [5] and in test [6] was more than 50 µM each time. Besides, the TGI in [7], in [8], in test [9] and in test [10] was more than 50 µM in each case.

`CCCCCCCCCCCCCCNC(=O)Nc1ccc(Cl)c(Cl)c1`: the GI50 in [1] is 8.04 µM; in [2], 1.24 µM; in test [3] it was 1.57 µM; in test [4], 2.79 µM; in test [5], 3.27 µM; in [6] it was 3.69 µM. Besides, the GI50 in test [7] was 3.72 µM; in test [8] it was 1.81 µM; in test [9] it was 1.6 µM. Besides, the TGI in test [1] was more than 100 µM; in test [2], 3.26 µM; in test [4], more than 100 µM; in test [5] it was more than 100 µM; in [6], more than 100 µM; in test [7] it was more than 100 µM. Further, the values for the TGI in test [8], in test [9] and in test [10] were 3.48 µM, more than 25.1 µM and more than 23.6 µM, respectively.

As to `Cc1noc(NC(=O)Nc2ccccc2F)c1C#N`, the TGI in test [1] was more than 100 µM; in [2], more than 100 µM; in [3], 4.42 µM; in test [4] it was more than 100 µM; in test [5], more than 37.7 µM; in [6], more than 45.8 µM. The TGI in test [7] is more than 48.9 µM; in [8], more than 100 µM; in test [9], more than 100 µM; in [10], more than 100 µM.

Regarding `CNCc1ccc(-c2cc(-c3nc(-c4ccc(S(=O)(=O)C(C)C)cc4)cnc3N)on2)cc1`, the GI50 in [1] was 1.05 µM; in [2], 1.31 µM; in test [3] it was 1.35 µM; in [4], 5.05 µM; in test [5], 0.492 µM; in test [6] it was 4.02 µM. The GI50 in [7] is 1.41 µM; in test [8], 10.8 µM; in test [9] it was 0.376 µM; in test [10] it was 0.132 µM. Besides, the TGI in [1] was 3.61 µM; in [2], 8.45 µM; in test [3], 14 µM; in [4] it was 22.8 µM; in test [5], 1.83 µM; in [6], 21.9 µM. The TGI is 3.29 µM in test [7], 24.1 µM in test [8], 3.07 µM in [9] and 2.84 µM in test [10].

With `CCCCCCCCOCC(COC(=O)CCCCCCC)OC(=O)CCCCCCC` (stereo not drawn), the TGI in test [1], in [2], in test [3], in test [4], in [5] and in [6] was more than 100 µM in each case. The TGI in test [7], in [8], in test [9] and in test [10] was more than 100 µM in each case.

On to `O=NN(CCCl)C(=O)NC1CCC(CC(=O)O)CC1` (stereo not drawn), for which the TGI in test [1], in test [2], in test [3], in test [4], in [5] and in test [6] was more than 100 µM in each case. In addition, the TGI was more than 100 µM in test [7]; more than 100 µM in test [8]; > 100 µM and 63.2 µM in test [9]; more than 100 µM in test [10].

Consider `Fc1ccc(NC(c2ccc(F)cc2)C2CCN(CCCCc3ccccc3)CC2)cc1` (stereo not drawn), for which the GI50 in [1] was 2.07 µM; in test [2], 2.17 µM; in test [3] it was 1.08 µM; in [4] it was 1.41 µM; in [5], 1.4 µM; in test [6] it was 1.7 µM. For the same compound, the GI50 in [7] was 1.68 µM; in test [8] it was 1.6 µM; in test [9] it was 1.74 µM; in [10], 1.57 µM. The TGI was 4.96 µM in [1]; 4.78 µM in [2]; 2.43 µM in test [3]; 3.22 µM in [4]; 3.03 µM in [5]; 4.04 µM in test [6]. For the same compound, the TGI in test [7] came to 3.83 µM; in [8], 3.2 µM; in test [9], 4.37 µM; in [10], 3.89 µM.

For `NC(N)=NCCCC(NCc1c2ccccc2nc2ccccc12)C(=O)O` (stereo not drawn), the TGI in test [1] was more than 89.4 µM; in test [2], more than 53.3 µM; in test [3] it was more than 100 µM; in test [4] it was more than 84.7 µM; in test [5], more than 66.4 µM; in [6], more than 100 µM. Also, the TGI in test [7] was more than 100 µM; in [8], more than 100 µM; in test [9] it was 45 µM; in [10], more than 83.2 µM.
